# Reference: ChEMBL document CHEMBL1201862, “PubChem BioAssay data set” (2004)
#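 Where inhibition never reached the appropriate level, the endpoint shown equals the highest concentration tested. Otherwise, values were interpolated linearly from a five-concentration, 48-hour dose response in 96-well plates. Here, GI50 denotes the concentration required for 50% inhibition of growth.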 Calls of active or inactive are those of the source. Rule as the data show it: active = GI50 up to about 1.1 µM and inactive = higher.
# What was measured:
# Assay in all cases: growth of human tumour cells (NCI), 48 h
# SF-295 = tested on: SF-295
# SNB-75 = tested on: SNB-75
# K562 = tested on: K562
# ACHN = tested on: ACHN
# NCI-H522 = tested on: NCI-H522
# RXF 393 = tested on: RXF 393
# RPMI-8226 = tested on: RPMI-8226
# CCRF-CEM = tested on: CCRF-CEM
# OVCAR-4 = tested on: OVCAR-4
# HT-29 = tested on: HT-29
# LOX IMVI = tested on: LOX IMVI
# HOP-62 = tested on: HOP-62
# HL-60 = tested on: HL-60
# NCI-H23 = tested on: NCI-H23
# SK-MEL-2 = tested on: SK-MEL-2
# A549 = tested on: A549
# U-251 = tested on: U-251
# SF-539 = tested on: SF-539
# Malme-3M = tested on: Malme-3M
# SW-620 = tested on: SW-620
Compound,GI50 (SF-295),GI50 (SNB-75),GI50 (K562),GI50 (ACHN),GI50 (NCI-H522),GI50 (RXF 393),GI50 (RPMI-8226),GI50 (CCRF-CEM),GI50 (OVCAR-4),GI50 (HT-29),GI50 (LOX IMVI),GI50 (HOP-62),GI50 (HL-60),GI50 (NCI-H23),GI50 (SK-MEL-2),GI50 (A549),GI50 (U-251),GI50 (SF-539),GI50 (Malme-3M),GI50 (SW-620)
COC(=O)C(=O)C(C(=O)OC)C(=O)C(=O)Nc1cc(Cl)c(Cl)cc1Cl (stereo unspecified),> 100 µM (inactive),> 100 µM (inactive),> 100 µM (inactive),> 100 µM (inactive),> 100 µM (inactive),> 100 µM (inactive),24.9 µM (inactive),31.6 µM (inactive),> 100 µM (inactive),49.8 µM (inactive),61 µM (inactive),> 100 µM (inactive),> 100 µM (inactive),> 100 µM (inactive),> 100 µM (inactive),> 100 µM (inactive),> 100 µM (inactive),> 100 µM (inactive),> 100 µM (inactive),
CC1(C)C2CCC3(OCCO3)C1C1OC12 (stereo unspecified),> 100 µM (inactive),41.4 µM (inactive),> 100 µM (inactive),> 100 µM (inactive),> 100 µM (inactive),> 100 µM (inactive),> 100 µM (inactive),> 100 µM (inactive),> 100 µM (inactive),> 100 µM (inactive),> 100 µM (inactive),,> 100 µM (inactive),> 100 µM (inactive),> 100 µM (inactive),> 100 µM (inactive),> 100 µM (inactive),> 100 µM (inactive),> 100 µM (inactive),> 100 µM (inactive)
C[C@@]12CCC(=O)C=C1CC[C@H]1C2=CC[C@]2(C)C1CC[C@@]2(C)O (stereo partly specified),32.3 µM (inactive),66.1 µM (inactive),38.4 µM (inactive),> 100 µM (inactive),28.1 µM (inactive),> 100 µM (inactive),54.7 µM (inactive),40.4 µM (inactive),25.2 µM (inactive),37.9 µM (inactive),> 100 µM (inactive),67.8 µM (inactive),25.4 µM (inactive),66.8 µM (inactive),38 µM (inactive),50.4 µM (inactive),41.3 µM (inactive),61.9 µM (inactive),> 100 µM (inactive),40.6 µM (inactive)
O=C1/C(=C/c2ccccc2)CN(C(=O)C(Cl)(Cl)Cl)C/C1=C\c1ccccc1,1.82 µM (inactive),3.27 µM (inactive),0.43 µM (active),2.01 µM (inactive),2.13 µM (inactive),1.89 µM (inactive),0.0348 µM (active),0.551 µM (active),1.73 µM (inactive),1.23 µM (inactive),0.94 µM (active),> 10 µM (inactive),0.159 µM (active),2.37 µM (inactive),2.91 µM (inactive),13.9 µM (inactive),1.64 µM (inactive),3.12 µM (inactive),2.11 µM (inactive),0.546 µM (active)
O=[N+]([O-])/C=C/c1cn(CCCCCCCCn2cc(/C=C/[N+](=O)[O-])c3ccccc32)c2ccccc12,> 10 µM (inactive),> 10 µM (inactive),> 10 µM (inactive),> 10 µM (inactive),> 10 µM (inactive),> 10 µM (inactive),0.41 µM (active),> 10 µM (inactive),> 10 µM (inactive),> 10 µM (inactive),3.51 µM (inactive),> 10 µM (inactive),> 10 µM (inactive),> 10 µM (inactive),> 10 µM (inactive),> 10 µM (inactive),,> 10 µM (inactive),> 10 µM (inactive),> 10 µM (inactive)
Cc1ccc(-c2nnc3s/c(=C\c4ccc(N(C)C)cc4)c(=O)n23)cc1,> 100 µM (inactive),65.2 µM (inactive),> 10 µM (inactive),> 100 µM (inactive),> 100 µM (inactive),> 100 µM (inactive),> 100 µM (inactive),> 100 µM (inactive),> 100 µM (inactive),,> 100 µM (inactive),> 100 µM (inactive),> 100 µM (inactive),> 100 µM (inactive),> 100 µM (inactive),> 100 µM (inactive),> 100 µM (inactive),> 100 µM (inactive),> 100 µM (inactive),> 100 µM (inactive)
O=C(c1cccs1)N(C(=S)N1CCN(c2ccccc2)CC1)c1ccccc1,> 100 µM (inactive),> 100 µM (inactive),> 100 µM (inactive),> 100 µM (inactive),> 100 µM (inactive),> 100 µM (inactive),> 100 µM (inactive),> 100 µM (inactive),> 100 µM (inactive),> 100 µM (inactive),> 100 µM (inactive),> 100 µM (inactive),> 100 µM (inactive),> 100 µM (inactive),> 100 µM (inactive),> 100 µM (inactive),> 100 µM (inactive),> 100 µM (inactive),> 100 µM (inactive),> 100 µM (inactive)
Cc1cccc(C)c1NC(=O)C(=O)C1C(=O)N(c2ccccc2)N=C1N (stereo unspecified),> 100 µM (inactive),94.4 µM (inactive),> 100 µM (inactive),> 100 µM (inactive),> 100 µM (inactive),> 100 µM (inactive),> 100 µM (inactive),> 100 µM (inactive),> 100 µM (inactive),> 100 µM (inactive),> 100 µM (inactive),> 100 µM (inactive),> 100 µM (inactive),> 100 µM (inactive),> 100 µM (inactive),> 100 µM (inactive),> 100 µM (inactive),> 100 µM (inactive),> 100 µM (inactive),> 100 µM (inactive)
O=C1C=C(Br)c2c(-c3ccccc3)oc3cccc1c23,22.9 µM (inactive),5.45 µM (inactive),> 50.9 µM (inactive),49 µM (inactive),31.6 µM (inactive),23.6 µM (inactive),> 39.3 µM (inactive),7.48 µM (inactive),7.5 µM (inactive),> 63.4 µM (inactive),> 49 µM (inactive),34.4 µM (inactive),19.1 µM (inactive),> 52.6 µM (inactive),71.8 µM (inactive),> 81.5 µM (inactive),18.4 µM (inactive),23.2 µM (inactive),72.3 µM (inactive),> 100 µM (inactive)
Cc1ccc2c(O)cc(-c3ccccc3)nc2n1,0.0585 µM (active),0.0664 µM (active),0.0366 µM (active),0.845 µM (active),0.0532 µM (active),0.127 µM (active),0.115 µM (active),0.0887 µM (active),5.24 µM (inactive),0.0378 µM (active),0.116 µM (active),0.366 µM (active),0.0255 µM (active),0.313 µM (active),0.103 µM (active),0.221 µM (active),0.0875 µM (active),0.191 µM (active),0.0867 µM (active),0.0389 µM (active)
